According to PMC7827406, “Structure–Activity Relationship (SAR) Study of Spautin-1 to Entail the Discovery of Novel NEK4 Inhibitors” (International Journal of Molecular Sciences, 2021):
Read-outs that look alike come from different tables or passages of the source.

Key:
Assay in all cases: biochemical
Parameters in all cases: Eurofins KinaseProfiler full panel at Km ATP, residual kinase activity (%) relative to DMSO
LATS2(h) = molecular target: T1, LATS2(h) (Homo sapiens, UniProt Q9NRM7)
T1 sequence (Q9NRM7 1-1088): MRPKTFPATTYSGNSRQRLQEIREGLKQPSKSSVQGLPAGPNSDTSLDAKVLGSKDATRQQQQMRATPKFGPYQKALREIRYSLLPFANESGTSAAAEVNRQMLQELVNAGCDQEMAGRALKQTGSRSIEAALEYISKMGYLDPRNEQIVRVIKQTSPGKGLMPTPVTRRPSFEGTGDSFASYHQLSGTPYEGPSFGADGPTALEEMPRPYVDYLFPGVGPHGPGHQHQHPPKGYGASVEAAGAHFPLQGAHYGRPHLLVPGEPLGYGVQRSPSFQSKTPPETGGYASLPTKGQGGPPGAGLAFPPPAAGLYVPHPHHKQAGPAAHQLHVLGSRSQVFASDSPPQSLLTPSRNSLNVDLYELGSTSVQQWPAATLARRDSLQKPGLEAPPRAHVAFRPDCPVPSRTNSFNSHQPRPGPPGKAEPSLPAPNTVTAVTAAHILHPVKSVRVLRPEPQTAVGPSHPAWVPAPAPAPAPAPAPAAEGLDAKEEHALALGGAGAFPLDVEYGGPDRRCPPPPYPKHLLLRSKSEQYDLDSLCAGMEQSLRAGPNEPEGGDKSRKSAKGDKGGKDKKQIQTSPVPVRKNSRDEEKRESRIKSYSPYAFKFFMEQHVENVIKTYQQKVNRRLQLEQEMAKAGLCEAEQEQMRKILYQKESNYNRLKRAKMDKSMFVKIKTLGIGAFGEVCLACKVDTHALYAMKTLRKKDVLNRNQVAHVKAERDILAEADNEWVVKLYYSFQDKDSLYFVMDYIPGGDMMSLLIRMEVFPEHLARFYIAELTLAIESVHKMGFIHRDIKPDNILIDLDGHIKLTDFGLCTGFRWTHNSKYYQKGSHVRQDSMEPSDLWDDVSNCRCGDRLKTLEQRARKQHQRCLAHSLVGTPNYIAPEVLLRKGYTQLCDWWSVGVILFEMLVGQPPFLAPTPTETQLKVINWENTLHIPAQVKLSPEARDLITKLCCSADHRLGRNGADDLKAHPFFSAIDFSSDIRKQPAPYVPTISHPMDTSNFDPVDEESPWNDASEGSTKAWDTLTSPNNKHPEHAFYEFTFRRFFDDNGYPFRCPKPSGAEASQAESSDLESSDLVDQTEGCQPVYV
Procedure, shortened: (§1)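 Two 10 µM single-concentration screens were run: a competition-binding screen, in which DNA-tagged kinase bound to immobilized ligands was quantified by qPCR, and a radiometric activity panel at Km ATP. Each is expressed as residual kinase activity (%).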

EphA1(h) = molecular target: T2, EphA1(h) (Homo sapiens, UniProt P21709)
T2 sequence (P21709 1-976): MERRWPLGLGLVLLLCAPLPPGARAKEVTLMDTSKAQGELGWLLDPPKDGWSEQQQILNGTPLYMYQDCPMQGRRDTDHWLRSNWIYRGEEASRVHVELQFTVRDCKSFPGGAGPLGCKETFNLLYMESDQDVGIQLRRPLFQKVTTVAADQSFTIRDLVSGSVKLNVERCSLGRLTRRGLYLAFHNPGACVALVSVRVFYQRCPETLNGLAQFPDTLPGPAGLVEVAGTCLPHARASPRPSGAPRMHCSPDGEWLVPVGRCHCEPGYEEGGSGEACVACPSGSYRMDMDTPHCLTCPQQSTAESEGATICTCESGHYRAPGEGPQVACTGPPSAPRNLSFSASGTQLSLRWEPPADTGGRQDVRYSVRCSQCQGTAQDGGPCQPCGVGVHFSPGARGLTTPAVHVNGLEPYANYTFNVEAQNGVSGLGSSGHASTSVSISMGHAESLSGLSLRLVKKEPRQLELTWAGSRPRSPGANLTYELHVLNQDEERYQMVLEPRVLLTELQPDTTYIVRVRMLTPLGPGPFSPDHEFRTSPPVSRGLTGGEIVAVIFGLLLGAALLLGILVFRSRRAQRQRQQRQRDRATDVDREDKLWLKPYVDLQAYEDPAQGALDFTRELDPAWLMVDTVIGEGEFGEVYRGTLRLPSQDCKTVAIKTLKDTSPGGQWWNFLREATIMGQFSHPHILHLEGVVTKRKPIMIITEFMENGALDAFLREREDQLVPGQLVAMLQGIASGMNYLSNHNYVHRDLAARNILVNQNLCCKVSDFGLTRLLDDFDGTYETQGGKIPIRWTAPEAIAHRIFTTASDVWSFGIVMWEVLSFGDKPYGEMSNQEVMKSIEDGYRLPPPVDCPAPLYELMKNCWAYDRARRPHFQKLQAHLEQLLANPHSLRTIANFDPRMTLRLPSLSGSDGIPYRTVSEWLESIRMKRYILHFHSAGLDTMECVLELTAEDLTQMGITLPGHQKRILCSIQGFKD
Procedure, shortened: as §1

Flt4(h) = Flt4(h) (Homo sapiens, UniProt P35916)
Procedure, shortened: as §1

ErbB4(h) = ErbB4(h) (Homo sapiens, UniProt Q15303)
Procedure, shortened: as §1

[1] = read-out: Residual activity (%) 5at
[2] = read-out: Residual activity (%) 5as
[3] = read-out: Residual activity (%) 5ay
[4] = read-out: Residual activity (%) Spautin-1 5aa

Chain of Flt4(h) (P35916 whole entry): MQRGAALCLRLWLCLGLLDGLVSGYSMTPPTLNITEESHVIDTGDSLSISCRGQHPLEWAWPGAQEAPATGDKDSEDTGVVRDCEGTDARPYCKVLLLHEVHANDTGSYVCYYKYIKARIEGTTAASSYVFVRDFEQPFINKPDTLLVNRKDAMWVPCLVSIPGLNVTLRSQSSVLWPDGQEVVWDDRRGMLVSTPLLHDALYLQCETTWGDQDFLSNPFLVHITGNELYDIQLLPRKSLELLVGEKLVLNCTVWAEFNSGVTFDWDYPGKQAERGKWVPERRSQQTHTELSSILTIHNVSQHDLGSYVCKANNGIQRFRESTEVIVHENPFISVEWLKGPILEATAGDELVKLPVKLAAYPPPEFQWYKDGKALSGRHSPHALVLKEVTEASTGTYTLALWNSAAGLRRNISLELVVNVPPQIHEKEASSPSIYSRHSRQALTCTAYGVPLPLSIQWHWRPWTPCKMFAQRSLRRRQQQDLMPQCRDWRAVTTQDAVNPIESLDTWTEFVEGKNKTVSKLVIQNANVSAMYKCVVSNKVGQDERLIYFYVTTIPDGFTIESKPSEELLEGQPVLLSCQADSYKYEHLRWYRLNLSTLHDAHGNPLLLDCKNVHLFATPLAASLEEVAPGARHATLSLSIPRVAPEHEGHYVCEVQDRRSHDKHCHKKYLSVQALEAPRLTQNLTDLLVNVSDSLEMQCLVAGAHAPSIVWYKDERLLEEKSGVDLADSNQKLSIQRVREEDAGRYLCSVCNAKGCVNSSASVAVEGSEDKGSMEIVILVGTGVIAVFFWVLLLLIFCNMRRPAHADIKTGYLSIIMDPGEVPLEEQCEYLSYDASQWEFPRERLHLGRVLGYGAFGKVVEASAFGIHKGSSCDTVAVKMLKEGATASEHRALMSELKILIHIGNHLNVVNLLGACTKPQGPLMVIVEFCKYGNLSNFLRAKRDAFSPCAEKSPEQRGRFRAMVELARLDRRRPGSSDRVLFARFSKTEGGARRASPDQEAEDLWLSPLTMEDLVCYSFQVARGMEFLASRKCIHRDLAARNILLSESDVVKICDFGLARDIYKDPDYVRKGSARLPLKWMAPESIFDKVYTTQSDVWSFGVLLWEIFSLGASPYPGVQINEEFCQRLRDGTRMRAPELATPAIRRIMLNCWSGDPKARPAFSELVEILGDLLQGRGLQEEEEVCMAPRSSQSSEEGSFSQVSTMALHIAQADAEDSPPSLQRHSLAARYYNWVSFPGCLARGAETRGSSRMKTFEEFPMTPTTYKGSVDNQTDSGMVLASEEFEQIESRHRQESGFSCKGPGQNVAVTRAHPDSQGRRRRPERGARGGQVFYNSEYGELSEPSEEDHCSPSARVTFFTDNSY
Chain of ErbB4(h) (Q15303 whole entry): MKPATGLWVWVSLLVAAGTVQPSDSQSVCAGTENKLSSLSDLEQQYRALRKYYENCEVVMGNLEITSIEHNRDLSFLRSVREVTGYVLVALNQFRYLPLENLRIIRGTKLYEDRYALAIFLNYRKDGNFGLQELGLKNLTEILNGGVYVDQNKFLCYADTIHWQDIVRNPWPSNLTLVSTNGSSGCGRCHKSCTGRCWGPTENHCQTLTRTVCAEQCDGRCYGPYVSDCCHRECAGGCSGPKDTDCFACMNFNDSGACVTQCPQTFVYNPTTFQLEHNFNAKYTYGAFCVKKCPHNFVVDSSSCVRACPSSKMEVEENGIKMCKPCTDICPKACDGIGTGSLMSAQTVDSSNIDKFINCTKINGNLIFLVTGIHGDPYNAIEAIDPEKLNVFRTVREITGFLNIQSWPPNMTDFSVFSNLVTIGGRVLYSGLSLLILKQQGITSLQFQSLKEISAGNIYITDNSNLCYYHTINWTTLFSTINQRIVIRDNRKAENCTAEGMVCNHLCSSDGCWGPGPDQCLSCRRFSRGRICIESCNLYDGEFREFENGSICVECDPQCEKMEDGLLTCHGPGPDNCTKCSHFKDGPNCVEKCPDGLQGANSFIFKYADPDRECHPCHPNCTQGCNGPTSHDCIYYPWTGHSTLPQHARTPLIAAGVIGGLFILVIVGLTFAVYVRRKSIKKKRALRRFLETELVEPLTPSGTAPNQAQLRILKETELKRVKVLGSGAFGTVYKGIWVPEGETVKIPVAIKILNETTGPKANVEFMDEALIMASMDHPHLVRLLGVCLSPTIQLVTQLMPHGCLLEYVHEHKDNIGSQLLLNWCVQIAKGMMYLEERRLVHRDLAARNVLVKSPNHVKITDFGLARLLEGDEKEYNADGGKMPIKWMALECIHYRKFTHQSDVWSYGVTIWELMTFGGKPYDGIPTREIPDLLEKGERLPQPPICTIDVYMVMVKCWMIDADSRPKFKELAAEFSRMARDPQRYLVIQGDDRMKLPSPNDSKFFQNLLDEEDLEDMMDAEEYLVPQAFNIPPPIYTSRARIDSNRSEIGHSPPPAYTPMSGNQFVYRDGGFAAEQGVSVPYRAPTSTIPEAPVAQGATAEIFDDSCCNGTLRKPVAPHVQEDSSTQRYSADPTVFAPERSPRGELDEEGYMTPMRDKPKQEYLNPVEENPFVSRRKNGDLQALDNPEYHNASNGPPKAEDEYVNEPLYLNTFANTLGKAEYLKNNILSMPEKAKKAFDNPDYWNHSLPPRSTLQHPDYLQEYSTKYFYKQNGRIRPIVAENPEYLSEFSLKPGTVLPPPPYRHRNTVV

## Fc1ccc2ncnc(NCCc3ccc(Cl)cc3)c2c1 [5at, N-[2-(4-Chlorophenyl)Ethyl]-6-Fluoro-4-Quinazolinamine]
LATS2(h); [1]
  remaining activity at 10 µM: 75%
EphA1(h); [1]
  remaining activity at 10 µM: 74%
Flt4(h); [1]
  remaining activity at 10 µM: 90%
ErbB4(h); [1]
  remaining activity at 10 µM: 79%

## Fc1ccc(CCNc2ncnc3ccc(F)cc23)cc1 [5as, 6-Fluoro-N-[2-(4-Fluorophenyl)Ethyl]-4-Quinazolinamine]
LATS2(h); [2]
  remaining activity at 10 µM: 74%
EphA1(h); [2]
  remaining activity at 10 µM: 66%
Flt4(h); [2]
  remaining activity at 10 µM: 81%
ErbB4(h); [2]
  remaining activity at 10 µM: 84%

## COc1ccc2ncnc(Nc3cccc(F)c3)c2c1 [5ay, N-(3-Fluorophenyl)-6-Methoxy-4-Quinazolinamine]
LATS2(h); [3]
  remaining activity at 10 µM: 72%
EphA1(h); [3]
  remaining activity at 10 µM: 61%
Flt4(h); [3]
  remaining activity at 10 µM: 66%
ErbB4(h); [3]
  remaining activity at 10 µM: 74%

## Fc1ccc(CNc2ncnc3ccc(F)cc23)cc1 [5aa, 6-Fluoro-N-(4-fluorobenzyl)-4-Quinazolinamine]
LATS2(h); [4]
  remaining activity at 10 µM: 94%
EphA1(h); [4]
  remaining activity at 10 µM: 93%
Flt4(h); [4]
  remaining activity at 10 µM: 92%
ErbB4(h); [4]
  remaining activity at 10 µM: 90%
